Laboratory results reported in patent US20010041724A1, “METHOD FOR THE CONTROL OF FLEA BEETLES IN CANOLA” (priority 1998, published 2001).

Assays:
canola = assay: Canola seed treatment, yield at end of growing season; type: in vivo; conditions: canola seed treated with acetamiprid; end of the growing season
[1] = test system: Phyllotreta spp. (flea beetles); assay: Canola seed treatment, shot-hole damage assessment post-emergence; type: in vivo; conditions: 4, 7, 10 and 14 days post-emergence
Description: Acetamiprid is applied to canola seed at rates of 7.5, 10, and 12.5 grams of active ingredient per kg of seed. Imidacloprid is applied to canola seed at rate of 15 g/kg of seed. The seed is planted and allowed to grow. At 4, 7, 10 and 14 days post-emergence of the plant, damage is assessed for the plants by looking for shot-hole damage.

## C/C(=N\C#N)N(C)Cc1ccc(Cl)nc1 [acetamiprid, (E)-N^1-[(6-chloro-3-pyridyl)methyl]-N^2-cyano-N^1-methylacetamidine]
canola
  yield of plants grown from treated seed: general yield increase
[1]; acetamiprid 7.5, 10 and 12.5 g a.i./kg canola seed vs imidacloprid 15 g/kg seed
  control of shot-hole damage relative to imidacloprid: substantially more control than imidacloprid
[1]; acetamiprid 7.5, 10 and 12.5 g a.i./kg canola seed
  control of shot-hole damage relative to two stage lindane+terbufos treatment: generally equivalent to the two stage lindane+terbufos treatment
